Assay [1] addresses measles virus (MeV) fusion protein F, wild type, expressed on cells (measles virus) (UniProt Q786F3). Description: cell-based or functional assay.
Assay [2] concerns the target viral glycoproteins (H and F); Nectin-4 (Measles virus, UniProt Q786F3). Description: beta-galactosidase complementation-based fusion assay, Nectin-4 target cells.
[3] abbreviates: IC50, Table 2 (salient peptides), Nectin-4 target cells.
The mark [4] stands for this setting: Nectin4 IC50, Table 3 (extended version).

Usually IC90 stands for the concentration at which the effect reaches the 90% level. A word on the IC50: it is the concentration that gives 50% inhibition.

Read-outs that look alike come from different tables or passages of the source. Square brackets hold non-standard residues; d marks the D form. Peptide text beside a SMILES is read from it. * marks the point of attachment. X4 = CC(C)CCC[C@@H](C)[C@H]1CC[C@H]2[C@@H]3CC=C4C[C@@H](OC(=O)CCOCCOCCOCCOCCNC(=O)C*)CC[C@]4(C)[C@H]3CC[C@]12C; X3 = CC(C)CCC[C@@H](C)[C@H]1CC[C@H]2[C@@H]3CC=C4C[C@@H](OC(=O)C*)CC[C@]4(C)[C@H]3CC[C@]12C; Cbz = O=C(OCc1ccccc1)*

As to “FIP-HRC450-485-chol (no GSGSG) (peptide)”, in assay [1], the IC50, beta-galactosidase complementation-based fusion assay, Nectin-4 target cells worked out at 0.0859 µM and the IC90, beta-galactosidase complementation-based fusion assay, Nectin-4 target cells turned out to be 0.54 µM.

In assay [1], FIP (peptide) showed an IC50, beta-galactosidase complementation-based fusion assay, Nectin-4 target cells of 9.72 µM and an IC90, beta-galactosidase complementation-based fusion assay, Nectin-4 target cells greater than 10 µM.

Turning to “FIP-HRC450-485, Monomer N-Maleimide (peptide)”, in assay [1], the IC50, beta-galactosidase complementation-based fusion assay, Nectin-4 target cells was greater than 1 µM and the IC90, beta-galactosidase complementation-based fusion assay, Nectin-4 target cells is greater than 1 µM.

Consider FIP-chol (no GSGSG) (peptide), for which, in assay [1], the IC50, beta-galactosidase complementation-based fusion assay, Nectin-4 target cells was greater than 1 µM and the IC90, beta-galactosidase complementation-based fusion assay, Nectin-4 target cells was greater than 1 µM.

Regarding `CC[C@H](C)[C@H](NC(=O)[C@H](C)NC(=O)[C@H](CC(N)=O)NC(=O)CNC(=O)[C@H](CC(C)C)NC(=O)[C@H](CC(N)=O)NC(=O)[C@@H](NC(=O)CNC(=O)[C@@H](NC(=O)[C@H](CC(=O)O)NC(=O)[C@H](CC(C)C)NC(=O)[C@H](CCCNC(=N)N)NC(=O)[C@H](CCC(=O)O)NC(=O)[C@H](CC(C)C)NC(=O)[C@H](CO)NC(=O)[C@@H](NC(=O)[C@@H]1CCCN1C(=O)[C@@H]1CCCN1C(=O)CNC(=O)[C@H](CO)NC(=O)CNC(=O)[C@H](CO)NC(=O)CNC(=O)CNC(=O)[C@H](Cc1ccccc1)NC(=O)[C@@H](Cc1ccccc1)NC(=O)OCc1ccccc1)[C@@H](C)CC)C(C)C)[C@@H](C)O)C(=O)N[C@@H](C)C(=O)N[C@@H](CCCCN)C(=O)N[C@@H](CC(C)C)C(=O)N[C@@H](CCC(=O)O)C(=O)N[C@@H](CC(=O)O)C(=O)N[C@@H](C)C(=O)N[C@@H](CCCCN)C(=O)N[C@@H](CCC(=O)O)C(=O)N[C@@H](CC(C)C)C(=O)N[C@@H](CC(C)C)C(=O)N[C@@H](CCC(=O)O)C(=O)N[C@@H](CO)C(=O)N[C@@H](CO)C(=O)N[C@@H](CC(=O)O)C(=O)N[C@@H](CCC(N)=O)C(=O)N[C@H](C(=O)N[C@@H](CC(C)C)C(=O)N[C@@H](CCCNC(=N)N)C(=O)NCC(=O)N[C@@H](CO)C(=O)NCC(=O)N[C@@H](CO)C(=O)NCC(=O)N[C@@H](CS)C(=O)O)[C@@H](C)CC` [FIP-HRC450-485], the IC90 in assay [2] and in assay [2] (read-out: Nectin4 IC90) was greater than 10 µM each time. Also, the 50% inhibitory concentration (IC50) in assay [2] (setting [3]) and in assay [2] (setting [4]) was 4.24 ± 0.812 µM in each case.

Take `CC[C@H](C)[C@H](NC(=O)[C@H](C)NC(=O)[C@H](CC(N)=O)NC(=O)CNC(=O)[C@H](CC(C)C)NC(=O)[C@H](CC(N)=O)NC(=O)[C@@H](NC(=O)CNC(=O)[C@@H](NC(=O)[C@H](CC(=O)O)NC(=O)[C@H](CC(C)C)NC(=O)[C@H](CCCNC(=N)N)NC(=O)[C@H](CCC(=O)O)NC(=O)[C@H](CC(C)C)NC(=O)[C@H](CO)NC(=O)[C@@H](NC(=O)[C@@H]1CCCN1C(=O)[C@@H]1CCCN1C(=O)CNC(=O)[C@H](CO)NC(=O)CNC(=O)[C@H](CO)NC(=O)CNC(=O)CNC(=O)[C@H](Cc1ccccc1)NC(=O)[C@@H](Cc1ccccc1)NC(=O)OCc1ccccc1)[C@@H](C)CC)C(C)C)[C@@H](C)O)C(=O)N[C@@H](C)C(=O)N[C@@H](CCCCN)C(=O)N[C@@H](CC(C)C)C(=O)N[C@@H](CCC(=O)O)C(=O)N[C@@H](CC(=O)O)C(=O)N[C@@H](C)C(=O)N[C@@H](CCCCN)C(=O)N[C@@H](CCC(=O)O)C(=O)N[C@@H](CC(C)C)C(=O)N[C@@H](CC(C)C)C(=O)N[C@@H](CCC(=O)O)C(=O)N[C@@H](CO)C(=O)N[C@@H](CO)C(=O)N[C@@H](CC(=O)O)C(=O)N[C@@H](CCC(N)=O)C(=O)N[C@H](C(=O)N[C@@H](CC(C)C)C(=O)N[C@@H](CCCNC(=N)N)C(=O)N[C@@H](CS)C(=O)O)[C@@H](C)CC` [FIP-HRC450-485 (no GSGSG)]: in assay [2] (setting [4]), half-maximal inhibition (IC50) required 2.77 ± 1.64 µM. For the same molecule, the IC90 in assay [2] (read-out: Nectin4 IC90) was found to be 6.37 ± 4.18 µM.

For the molecule `CC[C@H](C)[C@H](NC(=O)[C@H](C)NC(=O)[C@H](CC(N)=O)NC(=O)CNC(=O)[C@H](CC(C)C)NC(=O)[C@H](CC(N)=O)NC(=O)[C@@H](NC(=O)CNC(=O)[C@@H](NC(=O)[C@H](CC(=O)O)NC(=O)[C@H](CC(C)C)NC(=O)[C@H](CCCNC(=N)N)NC(=O)[C@H](CCC(=O)O)NC(=O)[C@H](CC(C)C)NC(=O)[C@H](CO)NC(=O)[C@@H](NC(=O)[C@@H]1CCCN1C(=O)[C@@H]1CCCN1C(C)=O)[C@@H](C)CC)C(C)C)[C@@H](C)O)C(=O)N[C@@H](C)C(=O)N[C@@H](CCCCN)C(=O)N[C@@H](CC(C)C)C(=O)N[C@@H](CCC(=O)O)C(=O)N[C@@H](CC(=O)O)C(=O)N[C@@H](C)C(=O)N[C@@H](CCCCN)C(=O)N[C@@H](CCC(=O)O)C(=O)N[C@@H](CC(C)C)C(=O)N[C@@H](CC(C)C)C(=O)N[C@@H](CCC(=O)O)C(=O)N[C@@H](CO)C(=O)N[C@@H](CO)C(=O)N[C@@H](CC(=O)O)C(=O)N[C@@H](CCC(N)=O)C(=O)N[C@H](C(=O)N[C@@H](CC(C)C)C(=O)N[C@@H](CCCNC(=N)N)C(=O)NCC(=O)N[C@@H](CO)C(=O)NCC(=O)N[C@@H](CO)C(=O)NCC(=O)N[C@@H](CSCC(=O)NCCOCCOCCOCCOCCC(=O)O[C@H]1CC[C@@]2(C)C(=CC[C@H]3[C@@H]4CC[C@H]([C@H](C)CCCC(C)C)[C@@]4(C)CC[C@@H]32)C1)C(=O)O)[C@@H](C)CC` [HRC450-485-peg4-chol], the IC90 in assay [2] and in assay [2] (read-out: Nectin4 IC90) was 0.856 ± 0.0786 µM in each case.

In the case of `CC(C)CCC[C@@H](C)[C@H]1CC[C@H]2[C@@H]3CC=C4C[C@@H](OC(=O)CCOCCOCCOCCOCCNC(=O)CSC[C@H](NC(=O)CNC(=O)[C@H](CO)NC(=O)CNC(=O)[C@H](CO)NC(=O)CNC(=O)CNC(=O)[C@H](Cc5ccccc5)NC(=O)[C@@H](Cc5ccccc5)NC(=O)OCc5ccccc5)C(=O)O)CC[C@]4(C)[C@H]3CC[C@]12C` [FIP-peg4-chol] (Cbz-[dF]FGGSGSGC(X4)-OH), the IC90 in assay [2] and in assay [2] (read-out: Nectin4 IC90) was 7.615 ± 0.013 µM each time.

As for `CC[C@H](C)[C@H](NC(=O)[C@H](C)NC(=O)[C@H](CC(N)=O)NC(=O)CNC(=O)[C@H](CC(C)C)NC(=O)[C@H](CC(N)=O)NC(=O)[C@@H](NC(=O)CNC(=O)[C@@H](NC(=O)[C@H](CC(=O)O)NC(=O)[C@H](CC(C)C)NC(=O)[C@H](CCCNC(=N)N)NC(=O)[C@H](CCC(=O)O)NC(=O)[C@H](CC(C)C)NC(=O)[C@H](CO)NC(=O)[C@@H](NC(=O)[C@@H]1CCCN1C(=O)[C@@H]1CCCN1C(C)=O)[C@@H](C)CC)C(C)C)[C@@H](C)O)C(=O)N[C@@H](C)C(=O)N[C@@H](CCCCN)C(=O)N[C@@H](CC(C)C)C(=O)N[C@@H](CCC(=O)O)C(=O)N[C@@H](CC(=O)O)C(=O)N[C@@H](C)C(=O)N[C@@H](CCCCN)C(=O)N[C@@H](CCC(=O)O)C(=O)N[C@@H](CC(C)C)C(=O)N[C@@H](CC(C)C)C(=O)N[C@@H](CCC(=O)O)C(=O)N[C@@H](CO)C(=O)N[C@@H](CO)C(=O)N[C@@H](CC(=O)O)C(=O)N[C@@H](CCC(N)=O)C(=O)N[C@H](C(=O)N[C@@H](CC(C)C)C(=O)N[C@@H](CCCNC(=N)N)C(=O)NCC(=O)N[C@@H](CO)C(=O)NCC(=O)N[C@@H](CO)C(=O)NCC(=O)N[C@@H](CS)C(=O)O)[C@@H](C)CC` [HRC450-485], the IC90 in assay [2] and in assay [2] (read-out: Nectin4 IC90) was greater than 10 µM throughout. Also, the IC50 in assay [2] (setting [3]) and in assay [2] (setting [4]) was greater than 10 µM throughout.

In the case of `CC[C@H](C)[C@H](NC(=O)[C@H](C)NC(=O)[C@H](CC(N)=O)NC(=O)CNC(=O)[C@H](CC(C)C)NC(=O)[C@H](CC(N)=O)NC(=O)[C@@H](NC(=O)CNC(=O)[C@@H](NC(=O)[C@H](CC(=O)O)NC(=O)[C@H](CC(C)C)NC(=O)[C@H](CCCNC(=N)N)NC(=O)[C@H](CCC(=O)O)NC(=O)[C@H](CC(C)C)NC(=O)[C@H](CO)NC(=O)[C@@H](NC(=O)[C@@H]1CCCN1C(=O)[C@@H]1CCCN1C(C)=O)[C@@H](C)CC)C(C)C)[C@@H](C)O)C(=O)N[C@@H](C)C(=O)N[C@@H](CCCCN)C(=O)N[C@@H](CC(C)C)C(=O)N[C@@H](CCC(=O)O)C(=O)N[C@@H](CC(=O)O)C(=O)N[C@@H](C)C(=O)N[C@@H](CCCCN)C(=O)N[C@@H](CCC(=O)O)C(=O)N[C@@H](CC(C)C)C(=O)N[C@@H](CC(C)C)C(=O)N[C@@H](CCC(=O)O)C(=O)N[C@@H](CO)C(=O)N[C@@H](CO)C(=O)N[C@@H](CC(=O)O)C(=O)N[C@@H](CCC(N)=O)C(=O)N[C@H](C(=O)N[C@@H](CC(C)C)C(=O)N[C@@H](CCCNC(=N)N)C(=O)NCC(=O)N[C@@H](CO)C(=O)NCC(=O)N[C@@H](CO)C(=O)NCC(=O)N[C@@H](CSC1CC(=O)N(CCC(=O)NCCOCCOCCOCCOCCOCCOCCOCCOCCOCCOCCOCCNC(=O)CCN2C(=O)CC(SC[C@H](NC(=O)CNC(=O)[C@H](CO)NC(=O)CNC(=O)[C@H](CO)NC(=O)CNC(=O)[C@H](CCCNC(=N)N)NC(=O)[C@H](CC(C)C)NC(=O)[C@@H](NC(=O)[C@H](CCC(N)=O)NC(=O)[C@H](CC(=O)O)NC(=O)[C@H](CO)NC(=O)[C@H](CO)NC(=O)[C@H](CCC(=O)O)NC(=O)[C@H](CC(C)C)NC(=O)[C@H](CC(C)C)NC(=O)[C@H](CCC(=O)O)NC(=O)[C@H](CCCCN)NC(=O)[C@H](C)NC(=O)[C@H](CC(=O)O)NC(=O)[C@H](CCC(=O)O)NC(=O)[C@H](CC(C)C)NC(=O)[C@H](CCCCN)NC(=O)[C@H](C)NC(=O)[C@@H](NC(=O)[C@H](C)NC(=O)[C@H](CC(N)=O)NC(=O)CNC(=O)[C@H](CC(C)C)NC(=O)[C@H](CC(N)=O)NC(=O)[C@@H](NC(=O)CNC(=O)[C@@H](NC(=O)[C@H](CC(=O)O)NC(=O)[C@H](CC(C)C)NC(=O)[C@H](CCCNC(=N)N)NC(=O)[C@H](CCC(=O)O)NC(=O)[C@H](CC(C)C)NC(=O)[C@H](CO)NC(=O)[C@@H](NC(=O)[C@@H]3CCCN3C(=O)[C@@H]3CCCN3C(C)=O)[C@@H](C)CC)C(C)C)[C@@H](C)O)[C@@H](C)CC)[C@@H](C)CC)C(=O)O)C2=O)C1=O)C(=O)O)[C@@H](C)CC` (stereo partly drawn) [[HRC450-485]2-peg11], the IC50 was greater than 4 µM in assay [2] and greater than 4 µM in assay [2] (read-out: Nectin4 IC50, Table 3 (extended version)). Besides, the IC90 in assay [2] and in assay [2] (read-out: Nectin4 IC90) was greater than 10 µM each time.

In the case of `CC(C)CCC[C@@H](C)[C@H]1CC[C@H]2[C@@H]3CC=C4C[C@@H](OC(=O)CSC[C@H](NC(=O)CNC(=O)[C@H](CO)NC(=O)CNC(=O)[C@H](CO)NC(=O)CNC(=O)CNC(=O)[C@H](Cc5ccccc5)NC(=O)[C@@H](Cc5ccccc5)NC(=O)OCc5ccccc5)C(=O)O)CC[C@]4(C)[C@H]3CC[C@]12C` [FIP-chol] (Cbz-[dF]FGGSGSGC(X3)-OH), the IC90 was 7.615 ± 0.013 µM in assay [2] and greater than 10 µM in assay [2] (read-out: Nectin4 IC90). Also, the figures for the half-inhibitory concentration (IC50) in assay [2] (setting [3]) and in assay [2] (setting [4]) were 4 ± 1.08 µM and greater than 10 µM, respectively.

These data come from patent publication US20230014151A1, “COMBINATION ANTIVIRAL THERAPY FOR MEASLES” (The Trustees of Columbia University in the City of New York, priority 2019, published 2023).
